{"source": "patent US20240382507A1", "about": "“PHARMACEUTICAL COMPOSITIONS COMPRISING 2,3,4,5- TETRAHYDROBENZOTHIEPIN- 1,1-DIOXIDE DERIVATIVES AND THE USE THEREOF” (Mirum Pharmaceuticals, Inc., priority 2023, published 2024)", "key": {"[1]": {"experiment": "Excipient compatibility: potency and purity of binary volixibat:excipient formulations on storage (HPLC)", "type": "physicochemical", "experimental": "Binary formulations of volixibat potassium were prepared at either 1:1 or 10:1 ratio with the excipients outlined in Table 1.1. Powder grade excipients were utilized to maximize surface area interactions between excipient and drug substance.\nEach formulation was prepared at 300 mg total sample size. Volixibat and each excipient was weighed into glass vials and mixed via vortex. A single vial of each formulation was stored loosely capped at two storage conditions: ambient/60% RH and 40° C./75% RH. Humidity control was obtained by using a saturated salt solution in a sealed container. […] A standard solution of volixibat DS prepared at nominal concentration in the analytical diluent served as the T=0 data point. The neat, loose drug substance powder was stored in the same vial configuration to serve as a control at each storage condition.\nAt the specified time points, approximately 50 mg of each formulation was sampled and diluted with analytical diluent in either 50 mL (for 1:1 formulations) or 100 mL (for […] and neat DS) to target nominal analytical concentration of 0.5 mg/mL volixibat. HPLC analysis was used based on the parameters described above under HPLC Parameters (Gradient Elution)."}, "[2]": {"experiment": "Formulation flow properties", "type": "physicochemical"}, "physchem": {"experiment": "physchem", "conditions": "25 °C, water"}}, "note": "Counter-ions that a name gives are not always drawn.", "data": [{"smiles": "CCCC[C@]1(CC)CS(=O)(=O)c2ccc(N(C)C)cc2[C@@H](c2cccc(NC(=O)N[C@@H]3O[C@H](COS(=O)(=O)[O-])[C@@H](O)[C@H](OCc4ccccc4)[C@H]3O)c2)[C@H]1O.[K+]", "note": "[Volixibat DS]", "values": [{"measurement": "Potency, % LC Volixibat", "setting": "[1]; stored at 40° C./75% RH, T = 2-weeks", "value": 93.2, "unit": "% LC"}, {"measurement": "Potency, % LC Volixibat", "setting": "[1]; stored at 40° C./75% RH, T = 4 weeks", "value": 105.1, "unit": "% LC"}, {"measurement": "Potency, % LC Volixibat", "setting": "[1]; stored at 40° C./75% RH, T = 8 weeks", "value": 98.3, "unit": "% LC"}, {"measurement": "Potency, % LC Volixibat", "setting": "[1]; stored at RT/60% RH, T = 2-weeks", "value": 100.9, "unit": "% LC"}, {"measurement": "Potency, % LC Volixibat", "setting": "[1]; stored at RT/60% RH, T = 4 weeks", "value": 107.7, "unit": "% LC"}, {"measurement": "Potency, % LC Volixibat", "setting": "[1]; stored at RT/60% RH, T = 9 weeks", "value": 97.1, "unit": "% LC"}, {"measurement": "Bulk Density", "setting": "[2]", "value": 0.54, "unit": "g/mL"}, {"measurement": "Hausner Ratio", "setting": "[2]", "value": 1.27}, {"measurement": "Tapped Density", "setting": "[2]", "value": 0.69, "unit": "g/mL"}]}, {"smiles": "CCCC[C@]1(CC)CS(=O)(=O)c2ccc(N(C)C)cc2[C@@H](c2cccc(NC(=O)N[C@@H]3O[C@H](COS(=O)(=O)O)[C@@H](O)[C@H](OCc4ccccc4)[C@H]3O)c2)[C@H]1O", "note": "[volixibat, ((2R,3R,4S,5R,6R)-4-benzyloxy-6-{3-[3-((3S,4R,5R)-3-butyl-7-dimethylamino-3-ethyl-4-hydroxy-1,1-dioxo-2,3,4,5-tetrahydro-1H-benzo[b]thiepin-5-yl)-phenyl]-ureido}-3,5-dihydroxy-tetrahydro-pyran-2-ylmethyl) hydrogen sulfate)]", "values": [{"measurement": "solubility", "setting": "physchem", "value": "> 200", "unit": "mg/mL"}]}]}
